Our source for the minimal effective concentration values is US11331369B2, “Endoparasitic depsipeptides” (Zoetis Services LLC, priority 2017, dated 2022).

This test concerns microfilariae of Dirofilaria immitis. Kind of test: Dirofilaria immitis, Microfilaria (DiMF) In vitro Assay. To be noted: 72 h, read-out: DiMF Minimum Effective Dose (MED), approximately 72 hours incubation, microfilariae assessed for survival or paralysis. It counts as cell-based.

Take `CC(C)C[C@H]1C(=O)O[C@H](Cc2ccc(Cn3cc(OC4CCC4)cn3)cc2)C(=O)N(C)[C@@H](CC(C)C)C(=O)O[C@H](C)C(=O)N(C)[C@@H](CC(C)C)C(=O)O[C@H](Cc2ccc(Cn3cc(OC4CCC4)cn3)cc2)C(=O)N(C)[C@@H](CC(C)C)C(=O)O[C@H](C)C(=O)N1C` [Example 1b-141, (3S,6R,9S,12R,15S,18R,21S,24R)-6,18-bis(4-((4-cyclobutoxy-1H-pyrazol-1-yl)methyl)benzyl)-3,9,15,21-tetraisobutyl-4,10,12,16,22,24-hexamethyl-1,7,13,19-tetraoxa-4,10,16,22-tetraazacyclotetracosan-2,5,8,11,14,17,20,23-octaone]: the minimal effective concentration was in the range of 0.01 to 0.1 µM.

`CC(C)C[C@H]1C(=O)O[C@H](Cc2ccc(Cn3cc(OC4COC4)cn3)cc2)C(=O)N(C)[C@@H](CC(C)C)C(=O)O[C@H](C)C(=O)N(C)[C@@H](CC(C)C)C(=O)O[C@H](Cc2ccc(Cn3cc(OC4COC4)cn3)cc2)C(=O)N(C)[C@@H](CC(C)C)C(=O)O[C@H](C)C(=O)N1C` [Example 1b-142, (3S,6R,9S,12R,15S,18R,21S,24R)-3,9,15,21-tetraisobutyl-4,6,10,16,18,22-hexamethyl-12,24-bis(4-((4-(oxetan-3-yloxy)-1H-pyrazol-1-yl)methyl)benzyl)-1,7,13,19-tetraoxa-4,10,16,22-tetraazacyclotetracosan-2,5,8,11,14,17,20,23-octaone]: the minimal effective concentration is 0.001 to 0.01 µM.

With `CC(C)C[C@H]1C(=O)O[C@H](Cc2ccc(Cn3nccc3N)cc2)C(=O)N(C)[C@@H](CC(C)C)C(=O)O[C@H](C)C(=O)N(C)[C@@H](CC(C)C)C(=O)O[C@H](Cc2ccc(Cn3nccc3N)cc2)C(=O)N(C)[C@@H](CC(C)C)C(=O)O[C@H](C)C(=O)N1C` [Example 1b-144, (3S,6R,9S,12R,15S,18R,21S,24R)-6,18-bis(4-((5-amino-1H-pyrazol-1-yl)methyl)benzyl)-3,9,15,21-tetraisobutyl-4,10,12,16,22,24-hexamethyl-1,7,13,19-tetraoxa-4,10,16,22-tetraazacyclotetracosan-2,5,8,11,14,17,20,23-octaone], the minimal effective concentration was in the range of 0.01 to 0.1 µM.

Take `CC(C)C[C@H]1C(=O)O[C@H](Cc2ccc(Cn3ccc(OC(F)F)n3)cc2)C(=O)N(C)[C@@H](CC(C)C)C(=O)O[C@H](C)C(=O)N(C)[C@@H](CC(C)C)C(=O)O[C@H](Cc2ccc(Cn3ccc(OC(F)F)n3)cc2)C(=O)N(C)[C@@H](CC(C)C)C(=O)O[C@H](C)C(=O)N1C` [Example 1b-156, (3S,6R,9S,12R,15S,18R,21S,24R)-6,18-bis(4-((3-(difluoromethoxy)-1H-pyrazol-1-yl)methyl)benzyl)-3,9,15,21-tetraisobutyl-4,10,12,16,22,24-hexamethyl-1,7,13,19-tetraoxa-4,10,16,22-tetraazacyclotetracosan-2,5,8,11,14,17,20,23-octaone]: the minimal effective concentration was 0.01 to 0.1 µM.

As to `CCOc1cc(C)n(Cc2ccc(C[C@H]3OC(=O)[C@H](CC(C)C)N(C)C(=O)[C@@H](C)OC(=O)[C@H](CC(C)C)N(C)C(=O)[C@@H](Cc4ccc(Cn5nc(OCC)cc5C)cc4)OC(=O)[C@H](CC(C)C)N(C)C(=O)[C@@H](C)OC(=O)[C@H](CC(C)C)N(C)C3=O)cc2)n1` [Example 1b-159, (3S,6R,9S,12R,15S,18R,21S,24R)-6,18-bis(4-((3-ethoxy-5-methyl-1H-pyrazol-1-yl)methyl)benzyl)-3,9,15,21-tetraisobutyl-4,10,12,16,22,24-hexamethyl-1,7,13,19-tetraoxa-4,10,16,22-tetraazacyclotetracosan-2,5,8,11,14,17,20,23-octaone], the minimal effective concentration fell in the range of 0.01 to 0.1 µM.

With `CC(C)C[C@H]1C(=O)O[C@H](Cc2ccc(Cn3cc(CO)c(C(F)(F)F)n3)cc2)C(=O)N(C)[C@@H](CC(C)C)C(=O)O[C@H](C)C(=O)N(C)[C@@H](CC(C)C)C(=O)O[C@H](Cc2ccc(Cn3cc(CO)c(C(F)(F)F)n3)cc2)C(=O)N(C)[C@@H](CC(C)C)C(=O)O[C@H](C)C(=O)N1C` [Example 1b-162, (3S,6R,9S,12R,15S,18R,21S,24R)-6,18-bis(4-((4-(hydroxymethyl)-3-(trifluoromethyl)-1H-pyrazol-1-yl)methyl)benzyl)-3,9,15,21-tetraisobutyl-4,10,12,16,22,24-hexamethyl-1,7,13,19-tetraoxa-4,10,16,22-tetraazacyclotetracosan-2,5,8,11,14,17,20,23-octaone], the minimal effective concentration was 0.01 to 0.1 µM.

For `CCOc1cc(C)nn1Cc1ccc(C[C@H]2OC(=O)[C@H](CC(C)C)N(C)C(=O)[C@@H](C)OC(=O)[C@H](CC(C)C)N(C)C(=O)[C@@H](Cc3ccc(Cn4nc(C)cc4OCC)cc3)OC(=O)[C@H](CC(C)C)N(C)C(=O)[C@@H](C)OC(=O)[C@H](CC(C)C)N(C)C2=O)cc1` [Example 1b-163, (3S,6R,9S,12R,15S,18R,21S,24R)-6,18-bis(4-((5-ethoxy-3-methyl-1H-pyrazol-1-yl)methyl)benzyl)-3,9,15,21-tetraisobutyl-4,10,12,16,22,24-hexamethyl-1,7,13,19-tetraoxa-4,10,16,22-tetraazacyclotetracosan-2,5,8,11,14,17,20,23-octaone], the minimal effective concentration was in the range of 0.01 to 0.1 µM.

Consider `CCOc1cc(CC)nn1Cc1ccc(C[C@H]2OC(=O)[C@H](CC(C)C)N(C)C(=O)[C@@H](C)OC(=O)[C@H](CC(C)C)N(C)C(=O)[C@@H](Cc3ccc(Cn4nc(CC)cc4OCC)cc3)OC(=O)[C@H](CC(C)C)N(C)C(=O)[C@@H](C)OC(=O)[C@H](CC(C)C)N(C)C2=O)cc1` [Example 1b-169, (3S,6R,9S,12R,15S,18R,21S,24R)-6,18-bis(4-((5-ethoxy-3-ethyl-1H-pyrazol-1-yl)methyl)benzyl)-3,9,15,21-tetraisobutyl-4,10,12,16,22,24-hexamethyl-1,7,13,19-tetraoxa-4,10,16,22-tetraazacyclotetracosan-2,5,8,11,14,17,20,23-octaone], for which the minimal effective concentration was 0.01 to 0.1 µM.

Turning to `CCOc1cc(C2CC2)nn1Cc1ccc(C[C@H]2OC(=O)[C@H](CC(C)C)N(C)C(=O)[C@@H](C)OC(=O)[C@H](CC(C)C)N(C)C(=O)[C@@H](Cc3ccc(Cn4nc(C5CC5)cc4OCC)cc3)OC(=O)[C@H](CC(C)C)N(C)C(=O)[C@@H](C)OC(=O)[C@H](CC(C)C)N(C)C2=O)cc1` [Example 1b-170, (3S,6R,9S,12R,15S,18R,21S,24R)-6,18-bis(4-((3-cyclopropyl-5-ethoxy-1H-pyrazol-1-yl)methyl)benzyl)-3,9,15,21-tetraisobutyl-4,10,12,16,22,24-hexamethyl-1,7,13,19-tetraoxa-4,10,16,22-tetraazacyclotetracosan-2,5,8,11,14,17,20,23-octaone], the minimal effective concentration lay within 0.01 to 0.1 µM.

Regarding `CC(C)C[C@H]1C(=O)O[C@H](Cc2ccc(Cn3cc(N4CCCCC4)cn3)cc2)C(=O)N(C)[C@@H](CC(C)C)C(=O)O[C@H](C)C(=O)N(C)[C@@H](CC(C)C)C(=O)O[C@H](Cc2ccc(Cn3cc(N4CCCCC4)cn3)cc2)C(=O)N(C)[C@@H](CC(C)C)C(=O)O[C@H](C)C(=O)N1C` [Example 1b-183, (3S,6R,9S,12R,15S,18R,21S,24R)-3,9,15,21-tetraisobutyl-4,6,10,16,18,22-hexamethyl-12,24-bis(4-((4-(piperidin-1-yl)-1H-pyrazol-1-yl)methyl)benzyl)-1,7,13,19-tetraoxa-4,10,16,22-tetraazacyclotetracosan-2,5,8,11,14,17,20,23-octaone], the minimal effective concentration was in the range of 0.01 to 0.1 µM.

Turning to `CC(C)C[C@H]1C(=O)O[C@H](Cc2ccc(Cn3cc(OCCN)cn3)cc2)C(=O)N(C)[C@@H](CC(C)C)C(=O)O[C@H](C)C(=O)N(C)[C@@H](CC(C)C)C(=O)O[C@H](Cc2ccc(Cn3cc(OCCN)cn3)cc2)C(=O)N(C)[C@@H](CC(C)C)C(=O)O[C@H](C)C(=O)N1C` [Example 1b-185, (3S,6R,9S,12R,15S,18R,21S,24R)-6,18-bis(4-((4-(2-aminoethoxy)-1H-pyrazol-1-yl)methyl)benzyl)-3,9,15,21-tetraisobutyl-4,10,12,16,22,24-hexamethyl-1,7,13,19-tetraoxa-4,10,16,22-tetraazacyclotetracosan-2,5,8,11,14,17,20,23-octaone], the minimal effective concentration was in the range of 0.01 to 0.1 µM.

Regarding `Cc1nn(Cc2ccc(C[C@H]3OC(=O)[C@H](CC(C)C)N(C)C(=O)[C@@H](C)OC(=O)[C@H](CC(C)C)N(C)C(=O)[C@@H](Cc4ccc(Cn5nc(C)c(OC(C)C)c5C)cc4)OC(=O)[C@H](CC(C)C)N(C)C(=O)[C@@H](C)OC(=O)[C@H](CC(C)C)N(C)C3=O)cc2)c(C)c1OC(C)C` [Example 1b-188, (3S,6R,9S,12R,15S,18R,21S,24R)-3,9,15,21-tetraisobutyl-6,18-bis(4-((4-isopropoxy-3,5-dimethyl-1H-pyrazol-1-yl)methyl)benzyl)-4,10,12,16,22,24-hexamethyl-1,7,13,19-tetraoxa-4,10,16,22-tetraazacyclotetracosan-2,5,8,11,14,17,20,23-octaone], the minimal effective concentration lay within 0.01 to 0.1 µM.

For `CCOc1c(C)nn(Cc2ccc(C[C@H]3OC(=O)[C@H](CC(C)C)N(C)C(=O)[C@@H](C)OC(=O)[C@H](CC(C)C)N(C)C(=O)[C@@H](Cc4ccc(Cn5nc(C)c(OCC)c5C)cc4)OC(=O)[C@H](CC(C)C)N(C)C(=O)[C@@H](C)OC(=O)[C@H](CC(C)C)N(C)C3=O)cc2)c1C` [Example 1b-191, (3S,6R,9S,12R,15S,18R,21S,24R)-6,18-bis(4-((4-ethoxy-3,5-dimethyl-1H-pyrazol-1-yl)methyl)benzyl)-3,9,15,21-tetraisobutyl-4,10,12,16,22,24-hexamethyl-1,7,13,19-tetraoxa-4,10,16,22-tetraazacyclotetracosan-2,5,8,11,14,17,20,23-octaone], the minimal effective concentration lay within 0.01 to 0.1 µM.

Regarding `CC(C)C[C@H]1C(=O)O[C@H](Cc2ccc(Cn3ccc(-c4cnccn4)n3)cc2)C(=O)N(C)[C@@H](CC(C)C)C(=O)O[C@H](C)C(=O)N(C)[C@@H](CC(C)C)C(=O)O[C@H](Cc2ccc(Cn3ccc(-c4cnccn4)n3)cc2)C(=O)N(C)[C@@H](CC(C)C)C(=O)O[C@H](C)C(=O)N1C` [Example 1b-195, (3S,6R,9S,12R,15S,18R,21S,24R)-3,9,15,21-tetraisobutyl-4,6,10,16,18,22-hexamethyl-12,24-bis[[4-[(3-pyrazin-2-ylpyrazol-1-yl)methyl]phenyl]methyl]-1,7,13,19-tetraoxa-4,10,16,22-tetrazacyclotetracosane-2,5,8,11,14,17,20,23-octaone], the minimal effective concentration lay within 0.01 to 0.1 µM.
